# Source: ChEMBL document CHEMBL1201862, “PubChem BioAssay data set” (2004)
# Where “and” joins values, the source holds several entries; their conditions need not be identical. Equal entries are not always repeated. Calls of active or inactive are those of the source.
# Experiments:
# [1] = test system: HEK293; test: inhibition of NOD1-driven NF-kB reporter – cell-based, luminescence, uHTS, primary screen (AID 1578); format: functional; conditions: Homo sapiens
# [2] = test system: HEK293; test: cells; format: functional, cell-based; conditions: Homo sapiens
# [3] = test system: HEK293; test: cells; format: functional, cell-based; conditions: Homo sapiens; remark: listed apart in the source
# [4] = target: Nucleotide-binding oligomerization domain-containing protein 2 (Homo sapiens, UniProt Q9HC29); test: inhibition of NOD2-driven NF-kB reporter – cell-based, luminescence, uHTS, HEK293 (AID 1566); format: functional
# [5] = test system: HEK293; test: NOD2 signaling inhibitors in MDP-stimulated cells, cell-based, uHTS, luminescence (AID 2001); format: functional; conditions: Homo sapiens
# [6] = test system: HEK293; test: cells; format: functional, cell-based; conditions: Homo sapiens; remark: listed apart in the source
# [7] = target: Tumor necrosis factor (Homo sapiens, UniProt P01375); test: analog potency on TNFa NF-kB signaling – cell-based, revised, SAR follow-up (AID 2337); format: functional
# [8] = target: T1, Nucleotide-binding oligomerization domain-containing protein 1 (Homo sapiens, UniProt Q9Y239); test: blockers of NOD1 pathway activity – revised, SAR follow-up (AID 2333); format: functional
# T1 sequence (Q9Y239 whole entry): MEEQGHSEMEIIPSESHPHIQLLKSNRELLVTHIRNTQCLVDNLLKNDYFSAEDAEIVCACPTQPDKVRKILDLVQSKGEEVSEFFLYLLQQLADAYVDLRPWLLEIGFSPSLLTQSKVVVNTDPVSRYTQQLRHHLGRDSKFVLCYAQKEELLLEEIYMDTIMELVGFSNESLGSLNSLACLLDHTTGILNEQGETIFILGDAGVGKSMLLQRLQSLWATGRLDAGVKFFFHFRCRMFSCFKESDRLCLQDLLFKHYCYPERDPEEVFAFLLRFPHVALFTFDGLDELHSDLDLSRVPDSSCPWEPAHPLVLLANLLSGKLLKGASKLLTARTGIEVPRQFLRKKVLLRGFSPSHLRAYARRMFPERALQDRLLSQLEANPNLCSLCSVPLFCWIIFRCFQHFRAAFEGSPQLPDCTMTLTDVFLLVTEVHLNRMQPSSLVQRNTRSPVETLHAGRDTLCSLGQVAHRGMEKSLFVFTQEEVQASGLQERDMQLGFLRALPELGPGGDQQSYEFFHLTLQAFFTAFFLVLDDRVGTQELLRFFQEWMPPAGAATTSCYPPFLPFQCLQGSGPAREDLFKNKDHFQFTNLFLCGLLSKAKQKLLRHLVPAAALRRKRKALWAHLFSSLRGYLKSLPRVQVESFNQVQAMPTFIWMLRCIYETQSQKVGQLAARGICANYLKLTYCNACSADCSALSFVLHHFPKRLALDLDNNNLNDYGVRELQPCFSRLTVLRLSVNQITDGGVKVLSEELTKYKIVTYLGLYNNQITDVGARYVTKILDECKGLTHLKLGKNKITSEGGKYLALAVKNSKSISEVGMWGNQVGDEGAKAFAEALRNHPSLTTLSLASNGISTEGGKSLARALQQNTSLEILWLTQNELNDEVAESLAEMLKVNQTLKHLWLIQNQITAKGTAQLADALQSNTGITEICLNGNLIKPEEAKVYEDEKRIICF
# [9] = test system: HEK293; test: cells; conditions: Homo sapiens
# [10] = target: Induced myeloid leukemia cell differentiation protein Mcl-1 (Homo sapiens, UniProt Q07820); format: functional
# [11] = target: T2, Carboxy-terminal domain RNA polymerase II polypeptide A small phosphatase 1 (Homo sapiens, UniProt Q9GZU7); test: CTDSP1 inhibitors, concentration-response, biochemical, absorbance readout, ultra-high-throughput screen actives (AID 540297); format: functional
# T2 sequence (Q9GZU7 whole entry): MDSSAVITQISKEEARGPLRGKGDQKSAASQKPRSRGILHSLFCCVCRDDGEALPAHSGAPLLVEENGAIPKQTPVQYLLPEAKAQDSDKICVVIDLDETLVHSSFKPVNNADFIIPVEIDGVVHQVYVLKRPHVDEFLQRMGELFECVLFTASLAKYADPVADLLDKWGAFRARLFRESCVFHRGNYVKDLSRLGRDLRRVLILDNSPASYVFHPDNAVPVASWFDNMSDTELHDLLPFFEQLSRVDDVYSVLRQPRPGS
# [12] = target: Glyceraldehyde-3-phosphate dehydrogenase (Homo sapiens, UniProt P04406)
# [13] = target: T3, Alkaline phosphatase, tissue-nonspecific isozyme (Homo sapiens, UniProt P05186); test: potency against alkaline phosphatase TNAP – biochemical, luminescent, dose response, SAR follow-up (AID 1056)
# T3 sequence (P05186 whole entry): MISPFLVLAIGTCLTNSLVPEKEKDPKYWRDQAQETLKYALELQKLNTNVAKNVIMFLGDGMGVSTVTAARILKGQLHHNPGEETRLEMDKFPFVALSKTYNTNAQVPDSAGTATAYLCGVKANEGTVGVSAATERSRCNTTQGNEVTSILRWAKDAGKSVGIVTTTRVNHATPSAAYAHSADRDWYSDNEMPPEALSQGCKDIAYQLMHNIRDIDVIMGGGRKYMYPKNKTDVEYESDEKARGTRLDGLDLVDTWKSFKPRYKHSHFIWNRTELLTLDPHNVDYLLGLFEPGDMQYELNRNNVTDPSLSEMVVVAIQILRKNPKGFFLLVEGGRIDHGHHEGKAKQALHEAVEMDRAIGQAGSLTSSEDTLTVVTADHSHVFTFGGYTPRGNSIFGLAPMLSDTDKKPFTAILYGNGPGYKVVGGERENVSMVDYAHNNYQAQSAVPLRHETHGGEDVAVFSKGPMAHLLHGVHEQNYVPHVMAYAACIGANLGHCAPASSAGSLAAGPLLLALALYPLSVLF
# [14] = THP-1 cell cytotoxicity, dose response, cytotoxicity control for non-replicating M. tuberculosis project (AID 489025); format: functional
# [15] = cells; format: functional
# [16] = test system: Streptococcus sp. 'group A'; test: Streptococcus pyogenes SK(-)GAS viability under kanamycin – luminescence, BacTiterGlo, confirmation, counter-screen for streptokinase expression inhibitor project, dose response (AID 1900); format: functional, organism-based
# [17] = target: T4, Streptokinase A (Streptococcus pyogenes serotype M1, UniProt P10520); test: viability-normalized secreted streptokinase activity reduction – plasminogen activation absorbance, OD405, dose response (AID 1914); format: functional, Streptococcus pyogenes M1 GAS;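 note: secreted streptokinase activity via plasminogen activation per viability signal from cell pellet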
# T4 sequence (P10520 whole entry): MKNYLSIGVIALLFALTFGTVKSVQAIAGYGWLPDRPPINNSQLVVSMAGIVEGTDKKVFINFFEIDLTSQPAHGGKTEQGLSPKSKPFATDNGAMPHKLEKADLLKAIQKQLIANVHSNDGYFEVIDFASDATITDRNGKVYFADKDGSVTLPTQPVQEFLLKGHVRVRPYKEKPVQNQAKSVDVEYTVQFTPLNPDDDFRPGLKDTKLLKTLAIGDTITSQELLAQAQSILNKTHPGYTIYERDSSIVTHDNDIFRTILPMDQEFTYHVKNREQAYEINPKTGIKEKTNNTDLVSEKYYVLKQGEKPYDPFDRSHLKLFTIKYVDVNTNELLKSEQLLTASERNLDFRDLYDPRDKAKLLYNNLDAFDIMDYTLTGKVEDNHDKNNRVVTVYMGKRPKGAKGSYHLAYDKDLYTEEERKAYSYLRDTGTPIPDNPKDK
# [18] = test system: Streptococcus; test: GAS UMAA2166 growth inhibition – luminescence, BacTiterGlo, counter-screen for streptokinase expression inhibitor project, dose response (AID 1915); format: functional, organism-based;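 note: potency for reduction of bacterial viability or growth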
# [19] = target: Nonstructural protein 1 (Influenza A virus, UniProt Q194T2); format: functional, Influenza A virus (A/California/07/2009(H1N1))
# [20] = target: FAD-linked sulfhydryl oxidase ALR (Homo sapiens, UniProt P55789); test: ALR-catalysed DTT oxidation blockers – biochemical, H2O2 detection, luminescence, cherry-pick, dose response (AID 493248)
# [21] = target: T5, Polyadenylate-binding protein 1 (Homo sapiens, UniProt P11940); test: MLLE binding blockers, Cy5 peptide tracer – biochemical, fluorescence polarization, Cy5-PAM2 peptide, secondary, miRNA deadenylation inhibitor project, dose response (AID 602260); format: functional; conditions: read-out: IC50_Mean
# [22] = target: T5, Polyadenylate-binding protein 1; test: MLLE domain peptide-binding blockers, IC50 – biochemical, fluorescence polarization, FITC-PAM2 peptide, dose response (AID 602259); format: functional; conditions: read-out: IC50_Mean
# [23] = target: T6, Rac GTPase-activating protein 1 (Homo sapiens, UniProt Q9H0H5); test: blockers of MgcRacGAP-driven Rac1 GTP hydrolysis – biochemical, ADP Hunter fluorescence, primary and confirmatory, confirmation (AID 624330); format: functional
# T6 sequence (Q9H0H5 whole entry): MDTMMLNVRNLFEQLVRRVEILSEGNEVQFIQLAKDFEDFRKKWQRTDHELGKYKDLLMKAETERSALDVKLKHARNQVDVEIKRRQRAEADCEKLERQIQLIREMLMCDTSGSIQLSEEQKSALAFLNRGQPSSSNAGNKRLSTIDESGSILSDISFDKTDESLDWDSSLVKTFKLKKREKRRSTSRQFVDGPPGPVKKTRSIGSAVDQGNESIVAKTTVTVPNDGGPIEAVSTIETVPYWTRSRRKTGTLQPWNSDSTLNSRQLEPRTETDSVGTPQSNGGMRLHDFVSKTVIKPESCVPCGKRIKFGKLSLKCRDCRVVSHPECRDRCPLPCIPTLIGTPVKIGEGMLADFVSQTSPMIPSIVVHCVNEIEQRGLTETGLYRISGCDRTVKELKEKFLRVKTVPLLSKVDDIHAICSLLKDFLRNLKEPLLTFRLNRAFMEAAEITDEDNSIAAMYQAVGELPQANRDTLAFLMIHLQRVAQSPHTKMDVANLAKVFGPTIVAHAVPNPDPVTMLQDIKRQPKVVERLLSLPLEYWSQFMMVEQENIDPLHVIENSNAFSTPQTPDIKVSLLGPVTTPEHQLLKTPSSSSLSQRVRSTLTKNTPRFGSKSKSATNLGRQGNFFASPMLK
# [24] = target: T7, Microphthalmia-associated transcription factor (Homo sapiens, UniProt O75030); test: reducers of TRPM1 reporter luminescence, concentration series – cell-based, SK-MEL-5, cherry-picked, set 3, MITF inhibitor project, dose response (AID 493073); format: functional;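 note: SK-MEL-5 melanoma cells with luciferase driven by the MITF target TRPM1 promoter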
# T7 sequence (O75030 whole entry): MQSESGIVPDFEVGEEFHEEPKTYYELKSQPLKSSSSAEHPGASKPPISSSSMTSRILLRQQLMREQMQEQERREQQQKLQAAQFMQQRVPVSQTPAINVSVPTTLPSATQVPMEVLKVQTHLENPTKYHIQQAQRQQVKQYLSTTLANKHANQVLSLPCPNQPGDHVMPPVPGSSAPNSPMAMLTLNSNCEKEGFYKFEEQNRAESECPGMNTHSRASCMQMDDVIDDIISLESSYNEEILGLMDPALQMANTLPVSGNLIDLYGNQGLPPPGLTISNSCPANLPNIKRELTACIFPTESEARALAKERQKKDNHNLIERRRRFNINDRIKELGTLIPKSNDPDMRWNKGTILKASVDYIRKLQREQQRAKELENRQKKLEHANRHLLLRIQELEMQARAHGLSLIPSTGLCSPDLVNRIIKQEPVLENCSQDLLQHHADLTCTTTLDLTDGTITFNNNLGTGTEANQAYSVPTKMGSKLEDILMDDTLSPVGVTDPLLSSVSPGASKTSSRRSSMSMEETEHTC
# Chain of Tumor necrosis factor (P01375 whole entry, the tested form may be a part): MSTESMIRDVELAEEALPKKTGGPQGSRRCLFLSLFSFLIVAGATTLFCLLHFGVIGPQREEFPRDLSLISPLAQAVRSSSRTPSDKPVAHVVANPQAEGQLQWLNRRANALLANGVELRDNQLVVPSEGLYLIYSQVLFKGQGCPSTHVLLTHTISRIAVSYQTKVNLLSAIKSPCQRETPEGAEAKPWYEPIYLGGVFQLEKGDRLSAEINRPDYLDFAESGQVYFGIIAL
# Chain of Glyceraldehyde-3-phosphate dehydrogenase (P04406 whole entry): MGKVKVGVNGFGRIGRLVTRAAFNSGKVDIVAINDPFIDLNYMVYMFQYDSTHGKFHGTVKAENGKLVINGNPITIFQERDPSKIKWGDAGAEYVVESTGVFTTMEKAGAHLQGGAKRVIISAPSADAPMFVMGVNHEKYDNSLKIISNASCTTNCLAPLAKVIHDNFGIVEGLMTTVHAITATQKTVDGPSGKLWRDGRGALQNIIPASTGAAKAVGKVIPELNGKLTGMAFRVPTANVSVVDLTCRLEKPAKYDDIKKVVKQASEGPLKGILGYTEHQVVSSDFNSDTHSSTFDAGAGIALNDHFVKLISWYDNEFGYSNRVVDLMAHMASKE
# Chain of Induced myeloid leukemia cell differentiation protein Mcl-1 (Q07820 whole entry, the tested form may be a part): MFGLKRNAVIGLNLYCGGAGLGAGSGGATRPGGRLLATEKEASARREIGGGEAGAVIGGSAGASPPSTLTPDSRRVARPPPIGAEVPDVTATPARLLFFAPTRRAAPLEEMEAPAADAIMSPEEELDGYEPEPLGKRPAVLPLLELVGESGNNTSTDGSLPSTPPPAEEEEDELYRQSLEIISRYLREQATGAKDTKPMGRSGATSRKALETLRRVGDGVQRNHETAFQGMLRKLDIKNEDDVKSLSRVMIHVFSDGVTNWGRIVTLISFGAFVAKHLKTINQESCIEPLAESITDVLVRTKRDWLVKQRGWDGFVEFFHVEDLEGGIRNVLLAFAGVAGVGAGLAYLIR
# T5 sequence (P11940 whole entry, the tested form may be a part): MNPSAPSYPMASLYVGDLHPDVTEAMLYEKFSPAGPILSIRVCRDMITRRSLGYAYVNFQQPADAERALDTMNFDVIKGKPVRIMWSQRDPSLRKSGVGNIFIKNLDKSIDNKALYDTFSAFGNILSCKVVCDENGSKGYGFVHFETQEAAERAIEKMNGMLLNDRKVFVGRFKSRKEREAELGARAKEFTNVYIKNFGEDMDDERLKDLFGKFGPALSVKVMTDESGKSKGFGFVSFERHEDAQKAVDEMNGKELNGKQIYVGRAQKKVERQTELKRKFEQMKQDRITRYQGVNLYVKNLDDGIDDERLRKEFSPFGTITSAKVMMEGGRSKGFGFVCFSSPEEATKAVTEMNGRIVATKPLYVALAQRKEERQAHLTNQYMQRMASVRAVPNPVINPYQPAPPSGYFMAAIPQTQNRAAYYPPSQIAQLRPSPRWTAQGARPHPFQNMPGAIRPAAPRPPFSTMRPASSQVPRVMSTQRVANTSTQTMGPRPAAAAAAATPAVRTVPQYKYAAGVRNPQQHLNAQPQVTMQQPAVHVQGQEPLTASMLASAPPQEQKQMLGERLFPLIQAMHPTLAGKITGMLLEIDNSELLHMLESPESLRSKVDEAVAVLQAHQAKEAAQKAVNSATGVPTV
# Chain of Nucleotide-binding oligomerization domain-containing protein 2 (Q9HC29 whole entry, the tested form may be a part): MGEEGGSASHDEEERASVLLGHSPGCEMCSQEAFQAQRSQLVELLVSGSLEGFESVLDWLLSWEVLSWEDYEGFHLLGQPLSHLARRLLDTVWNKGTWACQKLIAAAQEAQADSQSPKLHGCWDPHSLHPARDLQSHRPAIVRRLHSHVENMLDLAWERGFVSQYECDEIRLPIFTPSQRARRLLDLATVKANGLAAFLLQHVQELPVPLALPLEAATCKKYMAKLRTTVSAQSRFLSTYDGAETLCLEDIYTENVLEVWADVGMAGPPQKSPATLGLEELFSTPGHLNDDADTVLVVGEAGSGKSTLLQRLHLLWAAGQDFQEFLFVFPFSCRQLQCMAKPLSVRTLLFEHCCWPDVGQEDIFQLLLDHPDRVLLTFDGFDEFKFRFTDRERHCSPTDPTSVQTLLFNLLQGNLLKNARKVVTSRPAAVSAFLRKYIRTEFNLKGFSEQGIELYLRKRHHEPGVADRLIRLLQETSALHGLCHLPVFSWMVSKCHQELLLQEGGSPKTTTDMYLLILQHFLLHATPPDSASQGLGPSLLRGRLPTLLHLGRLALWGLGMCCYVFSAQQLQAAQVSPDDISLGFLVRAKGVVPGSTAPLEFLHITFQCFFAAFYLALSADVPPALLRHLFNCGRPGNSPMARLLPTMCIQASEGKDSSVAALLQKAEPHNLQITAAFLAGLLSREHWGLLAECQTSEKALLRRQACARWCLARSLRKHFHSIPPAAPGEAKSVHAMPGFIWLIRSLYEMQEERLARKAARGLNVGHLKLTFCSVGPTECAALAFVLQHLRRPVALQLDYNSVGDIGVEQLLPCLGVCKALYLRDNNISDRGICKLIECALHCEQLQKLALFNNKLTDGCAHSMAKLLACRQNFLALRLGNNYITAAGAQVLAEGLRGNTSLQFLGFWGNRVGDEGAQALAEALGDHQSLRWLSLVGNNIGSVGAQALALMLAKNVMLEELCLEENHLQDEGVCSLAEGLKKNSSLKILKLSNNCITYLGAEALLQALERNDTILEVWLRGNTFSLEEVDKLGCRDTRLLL
# Chain of Nonstructural protein 1 (Q194T2 whole entry): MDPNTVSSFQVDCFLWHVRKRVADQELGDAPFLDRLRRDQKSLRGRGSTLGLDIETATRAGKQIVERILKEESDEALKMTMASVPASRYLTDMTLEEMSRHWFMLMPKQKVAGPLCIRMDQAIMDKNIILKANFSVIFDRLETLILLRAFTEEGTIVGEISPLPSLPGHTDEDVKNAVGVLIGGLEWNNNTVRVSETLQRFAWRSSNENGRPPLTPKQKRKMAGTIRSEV
# Chain of FAD-linked sulfhydryl oxidase ALR (P55789 whole entry): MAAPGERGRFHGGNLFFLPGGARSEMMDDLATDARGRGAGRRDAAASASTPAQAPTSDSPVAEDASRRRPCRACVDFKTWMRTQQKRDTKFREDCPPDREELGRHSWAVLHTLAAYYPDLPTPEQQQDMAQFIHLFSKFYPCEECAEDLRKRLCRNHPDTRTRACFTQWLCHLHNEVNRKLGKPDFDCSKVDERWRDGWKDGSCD
smiles,measurement,setting,value
O=C(Nc1sc2c(c1C(=O)O)CCCC2)c1ccccc1Cl,EC50,[1],14.5 µM (active)
same,IC50,[2],> 20 µM (inactive)
same,IC50,[3],> 20 µM (inactive)
same,EC50,[4],> 20 µM (inactive)
same,IC50,[5],18.5 µM (inactive)
same,IC50,[6],> 20 µM (inactive)
same,IC50,[7],> 20 µM (inactive) and 12.9 µM (active)
same,IC50,[8],5.12 µM (active) and 4.45 µM (active)
same,IC50,[9],> 20 µM (inactive)
O=C(CSc1nnc(COc2ccccc2Cl)o1)NC(=O)NCc1ccco1,IC50,[10],6.9 µM (active)
same,IC50,[11],5.93 µM (active)
O=S(=O)(Nc1cccnc1)c1ccccc1,IC50,[12],> 100 µM (not active)
same,IC50,[13],> 100 µM (inactive)
CCc1nnc(NC(=O)c2ccc(Cl)c(S(=O)(=O)N3CCc4ccccc4C3)c2)s1,EC50,[1],2.1 µM (active)
same,IC50,[2],5.23 µM (active)
same,IC50,[3],17 µM (active)
same,EC50,[4],5.23 µM (active)
same,IC50,[5],4.3 µM (active)
same,IC50,[6],15.5 µM (active)
COc1ccc(OC)c(NC(=O)c2cnc3ccccc3c2)c1,IC50,[12],> 10 µM (inconclusive)
same,IC50,[13],> 10 µM (inactive)
N#Cc1ccc(-c2ccc(OCC(=O)Nc3cccnc3)cc2)cc1,CC50,[14],10.8 µM (active)
same,IC50,[15],1.63 µM (active)
COc1ccc(OC)c(NC(=O)c2cccnc2)c1,IC50,[12],> 100 µM (not active)
same,IC50,[13],> 100 µM (inactive)
O=C(Nc1ccccc1)c1n[nH]c2c1COc1ccccc1-2,IC50,[12],> 100 µM (not active)
same,IC50,[13],> 100 µM (inactive)
CC1Oc2cc3c(-c4c(O)cc(O)c5c(O)c6c(cc45)OC(C)C(C)C6=O)c(O)cc(O)c3c(O)c2C(=O)C1C (configuration not stated),EC50,[16],0.324 µM (active)
same,EC50,[17],1.74 µM (active)
same,IC50,[10],2.15 µM (active)
same,EC50,[18],0.967 µM (active)
same,IC50,[19],29.4 µM (active)
CCOc1ccc(NC(=O)c2ccc(CN3CCc4ccccc43)cc2)cc1,IC50,[7],> 20 µM (inactive)
same,IC50,[8],> 20 µM (inactive)
same,IC50,[9],> 20 µM (inactive)
Oc1ccc(/C=N/n2cc(-c3ccccc3)nc2S)cc1,IC50,[10],16.5 µM (active)
same,AC50,[20],0.86 µM (active)
same,IC50,[21],> 66 µM (inactive)
same,IC50,[22],> 66 µM (inactive)
same,IC50,[23],101 µM (active)
O=C(N/N=C/c1ccc([N+](=O)[O-])s1)c1ccccc1,CC50,[14],33.3 µM (active)
same,AC50,[24],2.29 µM (active)
same,IC50,[15],10.3 µM (active)
CCN(CC)c1ccc(/C=N/N2CCN(Cc3ccccc3)CC2)cc1,IC50,[10],11.5 µM (not active)
same,IC50,[23],78.7 µM (active)
Cc1nccn1-c1cccnc1,IC50,[12],> 100 µM (not active)
same,IC50,[13],> 100 µM (inactive)
